The numbers were not newly measured in patent US20110048980A1, “Fatty Acid Oxidation Inhibitors Treating Hyperglycemia and Related Disorders” (Symcopeia Company, priority 2007, published 2011), which cites them from elsewhere.

The conditions of data set [1]: in vivo.
For data set [2] the following is noted: pioglitazone added to other glucose lowering drugs, equivalent glucose-lowering.

For `COc1ccccc1OCC(O)CN1CCN(CC(=O)Nc2c(C)cccc2C)CC1` (stereo not shown) [Ranolazine, ranolazine], the QT interval effect result in data set [1] is on record as “causes QT interval prolongation”.

On to `CCc1ccc(CCOc2ccc(CC3SC(=O)NC3=O)cc2)nc1` (stereo not shown) [pioglitazone], for which the “increase in risk of congestive heart failure (CHF)” value in data set [2] is 2-3 fold. As to `CN(CCOc1ccc(CC2SC(=O)NC2=O)cc1)c1ccccn1` (stereo not shown) [rosiglitazone], where the note is “IGT patients, not statistically reduced, trend”, the “CHD events, relative risk” value was 1.37. The “increase in incidence of CHF” value (pre-diabetic population) is recorded as 7 fold.
